From ChEMBL document CHEMBL3758082, “Design, synthesis, and biological evaluation of crenatoside analogues as novel influenza neuraminidase inhibitors” (Eur J Med Chem, 2016)

Columns and labels:
[1] = biological target: Neuraminidase (Influenza A virus) (UniProt B4URF0); assay: Inhibition of Influenza A virus neuraminidase at 1000 ug/ml
Neuraminidase = Neuraminidase (Influenza A virus, UniProt B4URF0); assay: Inhibition of Influenza A virus neuraminidase
Sequence of Neuraminidase (B4URF0 whole entry): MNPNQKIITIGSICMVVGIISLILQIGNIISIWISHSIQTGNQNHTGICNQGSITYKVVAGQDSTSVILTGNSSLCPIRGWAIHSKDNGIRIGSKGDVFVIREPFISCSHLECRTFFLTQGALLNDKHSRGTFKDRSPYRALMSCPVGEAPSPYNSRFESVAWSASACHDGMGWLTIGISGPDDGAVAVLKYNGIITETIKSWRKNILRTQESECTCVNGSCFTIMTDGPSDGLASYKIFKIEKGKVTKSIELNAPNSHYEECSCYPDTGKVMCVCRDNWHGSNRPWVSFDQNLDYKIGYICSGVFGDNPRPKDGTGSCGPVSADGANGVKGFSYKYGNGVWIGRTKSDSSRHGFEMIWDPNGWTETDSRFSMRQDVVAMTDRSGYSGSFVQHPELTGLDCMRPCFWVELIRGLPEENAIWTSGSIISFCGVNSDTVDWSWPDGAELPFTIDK

Sequence of Neuraminidase (Influenza A virus) (B4URF0 as listed by the source): as the sequence (B4URF0 whole entry) above

| Compound | inhibition [1] [%] | IC50 (Neuraminidase) [µM] |
| --- | --- | --- |
| CSCC[C@@H](N)C(=O)O[C@H]1[C@H](O)[C@@H](CO)O[C@H]2OC[C@H](c3ccccc3)O[C@@H]21 | 88.8 | 216 |
| OC[C@H]1O[C@H]2OC[C@@H](c3ccccc3)O[C@@H]2[C@@H](O)[C@@H]1O | 16.8 | – |
| O=C(/C=C/c1ccc(O)cc1)O[C@H]1[C@H](O)[C@@H](CO)O[C@H]2OC[C@@H](c3ccccc3)O[C@@H]21 | 66.7 | 182 |
| COc1cccc(/C=C/C(=O)O[C@H]2[C@H](O)[C@@H](CO)O[C@H]3OC[C@@H](c4ccccc4)O[C@@H]32)c1 | 95.9 | 67 |
| CC(C)[C@@H](N)C(=O)O[C@H]1[C@H](O)[C@@H](CO)O[C@H]2OC[C@H](c3ccccc3)O[C@@H]21 | 16.6 | – |
| C[C@@H]1O[C@@H](O[C@H]2[C@H](O)[C@@H](CO)O[C@H]3OC[C@H](c4ccccc4)O[C@@H]32)[C@H](O)[C@H](O)[C@H]1O | 8.28 | – |
| O=C(/C=C/c1ccc(O)c(O)c1)O[C@H]1[C@H](O)[C@@H](CO)O[C@H]2OC[C@@H](c3ccccc3)O[C@@H]21 | 97.4 | 62.5 |
| O=C(/C=C/c1ccccc1)O[C@H]1[C@H](O)[C@@H](CO)O[C@H]2OC[C@@H](c3ccccc3)O[C@@H]21 | 29.8 | – |
| CSCC[C@@H](N)C(=O)O[C@H]1[C@H](O)[C@@H](CO)O[C@H]2OC[C@@H](c3ccccc3)O[C@@H]21 | 90.3 | 189 |
| C[C@@H]1O[C@@H](O[C@H]2[C@H](O)[C@@H](COC(=O)/C=C/c3ccc(O)c(O)c3)O[C@H]3OC[C@H](c4ccc(O)c(O)c4)O[C@@H]32)[C@H](O)[C@H](O)[C@H]1O [ISOCRENATOSIDE] | 86.3 | 186 |
| CC(C)[C@@H](N)C(=O)O[C@H]1[C@H](O)[C@@H](CO)O[C@H]2OC[C@@H](c3ccccc3)O[C@@H]21 | 25.3 | – |
| O=C(/C=C/c1ccc(O)cc1)O[C@H]1[C@H](O)[C@@H](CO)O[C@H]2OC[C@H](c3ccccc3)O[C@@H]21 | 65 | 229 |
| C[C@@H]1O[C@@H](O[C@H]2[C@H](O)[C@@H](CO)O[C@H]3OC[C@@H](c4ccccc4)O[C@@H]32)[C@H](O)[C@H](O)[C@H]1O | 11.7 | – |
| C[C@@H]1O[C@@H](O[C@@H]2[C@H]3O[C@@H](c4ccc(O)c(O)c4)CO[C@@H]3O[C@H](CO)[C@H]2OC(=O)/C=C/c2ccc(O)c(O)c2)[C@H](O)[C@H](O)[C@H]1O [CRENATOSIDE] | 89.2 | 144 |
| O=C(/C=C/c1ccccc1)O[C@H]1[C@H](O)[C@@H](CO)O[C@H]2OC[C@H](c3ccccc3)O[C@@H]21 | 17.6 | – |
| COc1cccc(/C=C/C(=O)O[C@H]2[C@H](O)[C@@H](CO)O[C@H]3OC[C@H](c4ccccc4)O[C@@H]32)c1 | 91.2 | 97 |
| OC[C@H]1O[C@H]2OC[C@H](c3ccccc3)O[C@@H]2[C@@H](O)[C@@H]1O | 3.9 | – |
| O=C(/C=C/c1ccc(O)c(O)c1)O[C@H]1[C@H](O)[C@@H](CO)O[C@H]2OC[C@H](c3ccccc3)O[C@@H]21 | 94.1 | 67.3 |
